# Values quoted from earlier work as cited in patent publication US12377109B2, “Formulation and noncovalent stabilization of olivetolic acid derivatives” (MINGOWOOD PHARMACAL LLC, priority 2020, dated 2025).
# Read-outs that look alike come from different tables or passages of the source.
# Experiments:
# [1] = for first-order rate constant k for decarboxylation: 100° C.
# [2] = test system: lithium chloride- and cisplatin-induced vomiting; settings: mice and shrews
# [3] = test system: MDA-MB-231 human breast cancer cells; settings: MDA-MB-231 cells
# [4] = 30° C., neat substances and solutions, reviewed studies
# [5] = 40° C., neat substances and solutions, reviewed studies
SMILES,"half-life [1, 4]","loss ([1]; 40% and 90% ethanol tinctures, 4° C., dark, 6 months, Peschel)","half-life [1, 5]",first-order rate constant k for decarboxylation [1],pKa,lowest dose suppressing vomiting [2],effect on cell migration [3],"time to 10% degradation ([1]; 25° C., extrapolated from Wang's data)","half-life ([1]; 30° C., calculated from Citti et al.)","half-life ([1]; 30° C., calculated from Wang et al.)","half-life ([1]; 30° C., estimated for the Cerilliant product)","decrease in potency ([1]; 40° C. over 4 weeks, Cerilliant standard solution in acetonitrile)","half-life ([1]; 40° C., from Wang et al. parameters)","decay constant ([1]; 80° C., Wang et al.)","half-life ([1]; 80° C., Wang's estimate)","half-life ([1]; 80° C., in hemp oil as extracted, Citti et al.)",activation energy of degradation ([1]; Wang et al.),prefactor in the expression for the degradation rate constant ([1]; Wang et al.),"activation energy of degradation ([1]; in hemp oil, Citti et al.)","prefactor ([1]; in hemp oil, Citti et al.)"
"CCCCCc1cc2c(c(O)c1C(=O)O)[C@@H]1C=C(C)CC[C@H]1C(C)(C)O2 [THCA, (6aR,10aR)-1-hydroxy-6,6,9-trimethyl-3-pentyl-6a,7,8,10a-tetrahydrobenzo[c]chromene-2-carboxylic acid]",about 12 weeks,over 50%,about 4 weeks,4.93×10^−4,,,,,,,,,,,,,,,,
"C=C(C)C1CCC(C)=CC1c1c(O)cc(CCCCC)c(C(=O)O)c1O (stereo not drawn) [CBDA, 3-p-mentha-1,8-dien-3-yl-6-pentyl-beta-resorcylic acid]",about 12 weeks,,about 4 weeks,4.13×10^−4,3.4,0.01 mg/kg,inhibits migration,approximately 3.7 weeks,4.5 weeks,11.6 weeks,about 12 weeks,69.8%,4.06 weeks,5.35e-05 s⁻¹,3.6 h,approximately 4.9 hours,27.5 kcal/mol,2e+12 s⁻¹,21.4 kcal/mol,6.9e+08 L/s
"CCCCCc1cc(O)c(C/C=C(\C)CCC=C(C)C)c(O)c1C(=O)O [CBGA, 3-[(2E)-3,7-dimethylocta-2,6-dienyl]-2,4-dihydroxy-6-pentylbenzoic acid]",,,,,2.9,,,,,,,,,,,,,,,
